Reference: patent publication US20240002429A1, “PRODRUG OF 5a-HYDROXY-6ß-[2-(1H-IMIDAZOL-4-YL)ETHYLAMINO]CHOLESTAN-3ß-OL AND PHARMACEUTICAL COMPOSITIONS COMPRISING SAME FOR USE IN THE TREATMENT OF CANCER” (priority 2020, published 2024)

Columns and labels:
Neuro2a cells = experiment: Cytotoxicity on Neuro2a cells, trypan blue assay; type: cell-based, murine; details: 48 h; for percentage of live cells compared to the control group: 100 nM
Protocol: For this experiment, a cell culture medium was prepared. The culture medium consists of a Dulbecco's Modified Eagle Medium (DMEM) marketed by Westburg under the reference LO BE12-604F), comprising 4.5 g/L glucose with L-glutamine, to which 10% of fetal calf serum (FCS) is added. Neuro2a cells (murine neuroblastoma) were introduced into this culture medium.
24-well plates were seeded with 10000 Neuro2a cells per well. After culture for 72 hours (h) in normal conditions, i.e. in an incubator at a temperature of 37° C. at 5% CO2, the Neuro2a cells were treated for 48 h with 5α-hydroxy-6β-[2-(1H-imidazol-4-yl)-ethylamino]-cholestan-3β-yl-propionate and 5α-hydroxy-6β-[2-(1H-imidazol-4-yl)-ethylamino]-cholestan-3β-ol at 100 nM, 1 μM and 10 μM. A control (CTL) is also carried out using the protocol described above but without treatment with the aforementioned compounds. Cell survival is quantified by a trypan blue assay with automatic counting with the Biorad TC20 apparatus (TC20™ Automated Cell Counter). The trypan blue assay is based on the integrity of the cell membrane, which is broken in dead cells. The trypan blue stains the dead cells blue. The Biorad TC20 cell counter counts the proportions of blue cells and non-blue cells, relative to the cell percentages.

[1] = test system: MCF-7 mammary tumor cells; experiment: cells; type: cell-based; details: Homo sapiens, MCF7, 48 h, read-out: cellular viability relative to the control group
Protocol: A cell viability test was carried out on MCF-7 mammary tumor cells (Michigan Cancer Foundation-7) […] (ER(+) cells) containing receptors for the hormone estrogen.
The MCF-7 cells are in a cell culture medium identical to example 14 and are seeded in 12-well plates at 50000 cells per well for 24 h. 24 hours after seeding, the cells are treated with the solvate vehicle comprising water and ethanol with an ethanol ratio 1‰ and comprising 5α-hydroxy-6β-[2-(1H-imidazol-4-yl)-ethylamino]-cholestan-3β-yl propionate or 5α-hydroxy-6β-[2-(1H-imidazol-4-yl)-ethylamino]-cholestan-3β-ol at 1, 2.5 or 5 μM. The cells are observed in an inverted microscope and photographed with the microscope camera at 24 h and 48 h. The morphological changes of the cells at 1 μM are very slight.
Following these observations, a cell viability test is measured by MTT labeling at 48 hours. This test is based on the use of the tetrazolium salt MTT (3-(4,5-dimethylthiazol-2-yl)-2,5-diphenyltetrazolium bromide). Tetrazolium is reduced by mitochondrial succinate dehydrogenase of active living cells, in formazan, precipitate of violet color. The amount of precipitate formed is proportional to the quantity of living cells but also to the metabolic activity of each cell. […] After 48 hours, the medium is aspirated, the cells are washed with phosphate-buffered saline (PBS) and then incubated with MTT (0.5 mg/ml in PBS) for about 2 hours. The MTT solution is aspirated and then the violet crystals are dissolved in dimethylsulfoxide (DMSO). The OD (optical density) is measured at 540 nm.
The control group is carried out similarly to the study groups without adding the molecules studied in the present text. Compared to the control, a decrease is measured, dependent on the dose of […], in cellular viability in MTT for 5α-hydroxy-6β-[2-(1H-imidazol-4-yl)-ethylamino]-cholestan-3β-yl propionate and 5α-hydroxy-6β-[2-(1H-imidazol-4-yl)-ethylamino]-cholestan-3β-ol.

4T1 tumors = experiment: Effect on 4T1 tumor growth and survival in vivo; details: 4T1 tumors in Balb/c mice, 40 mg/kg by stomach tube every day; for Median survival: Kaplan-Meier; for Inhibition of tumor growth: day 8 vs day 0
Protocol: All the procedures on the animals were carried out in accordance with the guidelines of our institution after being approved by the ethics committee. The 4T1 cells were cultured as before, and were dissociated in trypsin and washed twice in cold PBS and resuspended in PBS at 1.5 million/mL. The 4T1 tumors were obtained by subcutaneous transplantation of 0.150 million cells in 100 μL in the flank of female Balb/c mice (9 weeks, January). When the tumors reached a volume of 50-100 mm^3, the mice were fed by stomach tube with 40 mg/kg of DX101 or 40 mg/kg of […] or the control vehicle (water). The treatment was carried out every day until the end of the experiment (tumor volume >1000 mm^3). The tumor volume was determined every day using a caliper gauge and calculated from the formula: ½×(Length*Width^2). The percentage inhibition of tumor growth was determined from the following formula: 100×(1−(tumor volume, day 8/tumor volume day 0)DX107)/(1−(tumor volume, day 8/tumor volume day 0)vehicle).
The Kaplan-Meier method was used for comparing the animals' survival.

| SMILES | percentage of live cells compared to the control group (Neuro2a cells) | percentage cell survival relative to the control group (Neuro2a cells; 1 μM) | percentage cell survival relative to the control group (Neuro2a cells; 10 μM) | viability at 2.5 µM [1] | viability at 5 µM [1] | Median survival (4T1 tumors) | Inhibition of tumor growth (4T1 tumors) |
| --- | --- | --- | --- | --- | --- | --- | --- |
| CC(C)CCC[C@@H](C)[C@H]1CC[C@H]2[C@@H]3C[C@@H](NCCc4c[nH]cn4)[C@@]4(O)C[C@@H](O)CC[C@]4(C)[C@H]3CC[C@]12C [DX101, 5α-hydroxy-6β-[2-(1H-imidazol-4-yl)-ethylamino]-cholestan-3β-ol, reference compound] | unchanged | 85.42±4.73% | 43.25% | ~60% | ~18% | 9 days | 58% |
| CCC(=O)O[C@H]1CC[C@]2(C)[C@H]3CC[C@]4(C)[C@@H]([C@H](C)CCCC(C)C)CC[C@H]4[C@@H]3C[C@@H](NCCc3c[nH]cn3)[C@@]2(O)C1 [DX107, 5α-hydroxy-6β-[2-(1H-imidazol-4-yl)ethylamino]cholestan-3β-yl propionate] | unchanged | 84.08±4.09% | 30.46±5.22% | ~95% | ~18% | 14 days | 78% |
